Assays:
[1] = Partition coefficients in n-octanol/phosphate buffer (pH 7.4); format: physicochemical; conditions: means ± SD, n = 3
Method: The phosphate buffer and octanol were mutually saturated at 20–22 °C before use. Samples were dissolved in the aqueous phase and the n-octanol/phosphate buffer mixtures were shaken for 24 h to reach a distribution equilibrium. The volumes of each phase were chosen so that the solute concentration in the aqueous phase, before and after distribution, could readily be measured using HPLC method. The partition coefficients (P) were calculated from the following equation: [drawing 1] where Ci and Cw represent the solute concentrations in the aqueous buffer phase before and after distribution, respectively, Vw represents the volume of the aqueous phase, and Vo is the volume of the octanol phase.[16]

[2] = In vitro incubation with stomach contents of rats; format: in vitro ADME; conditions: rat stomach contents homogenate, pH 1.2, 37 °C, after 2 h of incubation
Method: After anesthetized with diethyl ether, rats were sacrificed and their contents of stomach and small intestine were collected and homogenized respectively, the homogenate was diluted with buffer solution (pH 1.2 for stomach contents, pH 6.8 for small intestine contents) to 20% (w/v). […] After 0.25, 0.5, 1.0, 1.5, 2.0, 3.0 and 4.0 h of incubation, 200 μL of samples were collected and replaced with the same volume of blank homogenate, then samples were centrifuged at 13 000 rpm for 5 min, filtered with membrane filter, and analyzed by HPLC. The residual contents of each prodrug in homogenate were calculated and the hydrolysis curves were drawn.

[3] = tested on: TNBS-induced experimental colitis; assay: TNBS-induced colitis: disease activity index (DAI); format: in vivo, mice; conditions: for DAI, compared with positive control: vs positive control (5-ASA + sodium butyrate)
Method: Colitis was induced according to the previous study.[18,19] Briefly, after 12 h of fasting, mice were anesthetized with intraperitoneal pentobarbital sodium (35 mg kg^-1) before the induction of colitis. 0.1 mL of 50% (v/v) ethanol contained 2.5% (v/v) TNBS was instilled into the colon 3.5-4 cm from the anus by a gavage needle. The mice were kept in a head-down position for 30 s to prevent leakage of the intracolonic instillation. Mice in the control group received normal saline instead of TNBS solution, a physical mixture of 5-ASA and sodium butyrate was used as the positive control. […] The treatments were given once daily for 5 continuous days starting 24 hours after the induction of colitis. DAI is ranged from 0 to 4 and it is the sum of scores given for body weight loss, stool consistency and presence or absence of fecal blood. The fecal occult blood of mice was evaluated by the ο-tolidine method.[22] A small amount of feces samples were smeared on a white plate. 2-3 drops of ο-tolidine solution (10 g L^-1, dissolved in acetic acid) were added into samples and mixed evenly. Then 2-3 drops of 3% H2O2 solution were added into the mixture, meanwhile, start the time and observe immediately. Scored as: normal, weak positive, green to light green developing over 2 min; +, positive, greenish-blue to deep green developing within 1 min; ++, positive, blue to bluish-green developing within 5-20 s; +++, very strong positive, intense blue color developing immediately.[23]

SMILES | P (partition coefficient) [1] | logP at 24 h [1] | residual content of prodrug in stomach contents [2] | DAI, compared with positive control [3] | DAI ([3]; TNBS colitis mice, once daily 5 days, equivalent to 100 mg kg^−1 5-ASA, course after treatment)
CCCC(=O)OCC(COC(=O)CCC)OC(=O)c1cc(N)ccc1O [5-ASDB, 2-(1,3-dibutyroxypropyl)-5-aminosalicylate] | 3.81 ± 0.35 | 0.58 ± 0.04 | 63.3% | better effects than the positive control | –
CCCC(=O)Oc1ccc(N=Nc2ccc(OC(=O)CCC)c(C(=O)O)c2)cc1C(=O)O [Ols-DB, 3,3′-azobis(6-hydroxybenzoicacid)dibutyrate] | 2.10 ± 0.24 | 0.32 ± 0.05 | almost completely decomposed | better effects than the positive control | most significant effects in the first 4 days
CCCC(=O)OCC(COC(=O)CCC)OC(=O)c1cc(N=Nc2ccc(O)c(C(=O)OC(COC(=O)CCC)COC(=O)CCC)c2)ccc1O [Ols-DBP] | 2.94 ± 0.37 | 0.47 ± 0.06 | 57.5% | better effects than the positive control | –

— PMC9077470 (RSC Advances, 2018)
